The record followed here is ChEMBL document CHEMBL1201862, “PubChem BioAssay data set” (2004).

Assay in all cases: growth of human tumour cells (NCI), 48 h
The test system of experiment [1] is 786-0.
Experiment [2] concerns A498.
The subject of experiment [3] is A549.
Experiment [4] relates to ACHN.
In experiment [5] the test system is DU-145.
For experiment [6], the system named is HCT-15.
The subject of experiment [7] is K562.
In experiment [8] the test system is MDA-MB-435.
Experiment [9] deals with NCI-H23.
The test system of experiment [10] is NCI-H460.
Experiment [11] has as its system OVCAR-3.
Experiment [12] has as its system OVCAR-5.
In experiment [13] the test system is RPMI-8226.
Experiment [14] concerns RXF 393.
Experiment [15] relates to SF-539.
The test system of experiment [16] is SNB-75.
Experiment [17] has as its system UACC-257.
The test system of experiment [18] is UACC-62.
Experiment [19] relates to TK-10.
For experiment [20], the system named is HCC 2998.

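Where inhibition never reached the appropriate level, the endpoint shown equals the highest concentration tested. Otherwise, values were interpolated linearly from a five-concentration, 48-hour dose response in 96-well plates. GI50 = concentration required for 50% inhibition of growth.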 Activity calls are given as the source filed them. Cut-off read from the data, not from the text of the source: active = GI50 up to about 1.1 µM and inactive = higher. Some results are limits rather than exact numbers.

For the compound `CC(=O)Nc1c(C)cc2c(nc3n2CCC3OC(C)=O)c1[N+](=O)[O-]` (configuration not stated), the GI50 in experiment [1] was > 100 µM (inactive); in experiment [2], > 100 µM (inactive); in experiment [3] it was > 100 µM (inactive); in experiment [4] it was > 100 µM (inactive); in [5] it was > 100 µM (inactive); in experiment [6], above 100 µM. The GI50 in [7], in experiment [8], in [9], in experiment [10], in experiment [11] and in [12] was > 100 µM (inactive) in each case. Besides, the GI50 in [13] is > 100 µM (inactive); in [14], 7.98 µM (inactive); in experiment [15], > 100 µM (inactive); in experiment [16] it was > 100 µM (inactive); in experiment [17], > 100 µM (inactive); in experiment [18] it was > 100 µM (inactive).
As for `CSc1nc(N)c(NC2OC(CO)C(O)C2O)c(=O)[nH]1` (configuration not stated), the GI50 in experiment [1] is > 100 µM (inactive); in experiment [2], > 100 µM (inactive); in experiment [3], > 100 µM (inactive); in experiment [5], > 100 µM (inactive); in experiment [6] it was above 100 µM; in experiment [7] it was > 100 µM (inactive). The GI50 in experiment [8], in experiment [10], in experiment [11], in experiment [12], in [13] and in experiment [14] was > 100 µM (inactive) throughout. Further, the GI50 in experiment [15], in experiment [16], in [19], in experiment [17] and in experiment [18] was > 100 µM (inactive) each time.
With `CCOC(CNCCC(=O)OC)OCC`, the GI50 in experiment [1], in [2], in [3], in experiment [4], in experiment [5] and in experiment [20] was > 10 µM (inactive) in each case. Besides, the GI50 was above 10 µM in experiment [6]; > 10 µM (inactive) in [7]; > 10 µM (inactive) in experiment [8]; > 10 µM (inactive) in experiment [9]; > 10 µM (inactive) in experiment [10]; > 10 µM (inactive) in experiment [11]. Further, the GI50 in experiment [13], in [14], in [15], in experiment [16], in [19] and in experiment [17] was > 10 µM (inactive) each time. In addition, the GI50 in [18] was > 10 µM (inactive).
For the compound `Nc1nc(N)c(/N=N/c2ccc(C(=O)O)c(O)c2)c(N)n1`, the GI50 was > 100 µM (inactive) in experiment [1]; > 100 µM (inactive) in experiment [2]; > 100 µM (inactive) in experiment [3]; > 100 µM (inactive) in experiment [4]; > 100 µM (inactive) in experiment [5]; above 100 µM in [6]. Further, the GI50 in experiment [7] was < 0.01 µM (active); in experiment [8], > 100 µM (inactive); in experiment [9], > 100 µM (inactive); in [10], > 100 µM (inactive); in [11], 10.4 µM (inactive); in experiment [12], > 100 µM (inactive). The GI50 in [13], in experiment [14], in experiment [15], in experiment [16], in experiment [19] and in experiment [17] was > 100 µM (inactive) throughout. Besides, the GI50 in experiment [18] is > 100 µM (inactive).
As for `c1csc(-c2cc(-c3ccsc3)c(-c3ccsc3)s2)c1`, the GI50 in experiment [1] was > 100 µM (inactive); in [2], > 100 µM (inactive); in [3], > 100 µM (inactive); in [4] it was > 100 µM (inactive); in experiment [5] it was > 100 µM (inactive); in [20] it was 68.7 µM (inactive). Moreover, the GI50 in experiment [6] was 24 µM; in experiment [7], > 100 µM (inactive); in experiment [8] it was > 100 µM (inactive); in experiment [9] it was > 100 µM (inactive); in [10], > 100 µM (inactive); in experiment [11], > 100 µM (inactive). The GI50 in [12], in experiment [14], in experiment [15], in experiment [16], in experiment [19] and in experiment [17] was > 100 µM (inactive) in each case. In addition, in experiment [18], the GI50 was > 100 µM (inactive).
For `C#CCOC(=O)[C@@H](C)c1ccc2cc(OC)ccc2c1`, the GI50 in experiment [1] is 71.9 µM (inactive); in [2], > 100 µM (inactive); in [4], > 100 µM (inactive); in experiment [5], > 100 µM (inactive); in [6], 28.4 µM; in [7], 44.8 µM (inactive). In addition, the GI50 in experiment [8] is 66.4 µM (inactive); in experiment [9], 63.5 µM (inactive); in [10], > 100 µM (inactive); in experiment [12] it was > 100 µM (inactive); in experiment [13], 29.5 µM (inactive); in [14], 86.5 µM (inactive). In addition, the GI50 was 76.9 µM (inactive) in experiment [15]; 34.3 µM (inactive) in experiment [16]; > 100 µM (inactive) in experiment [19]; 96.2 µM (inactive) in experiment [17]; > 100 µM (inactive) in [18].
Regarding `C[C@]12CC(c3ccccc3O1)C(C(N)=O)C(=O)N2` (some centres not stated), the GI50 in experiment [1], in experiment [2], in experiment [3], in [4], in experiment [5] and in experiment [20] was > 100 µM (inactive) each time. Also, the GI50 in [6] is above 100 µM; in [7], > 100 µM (inactive); in experiment [8], > 100 µM (inactive); in experiment [9] it was > 100 µM (inactive); in experiment [10], > 100 µM (inactive); in experiment [11] it was > 100 µM (inactive). Further, the GI50 in experiment [12], in [13], in [14], in experiment [16], in [17] and in [18] was > 100 µM (inactive) throughout.
On to `CC1(C)C(C(=O)OC(C#N)c2cccc(OCC(=O)OCc3ccccc3)c2)C1(C)C` (configuration not stated), for which the GI50 in [1] was > 100 µM (inactive); in experiment [2], > 100 µM (inactive); in [3], > 100 µM (inactive); in experiment [4] it was > 100 µM (inactive); in experiment [5], > 100 µM (inactive); in experiment [6], above 100 µM. The GI50 in [7] is 2.36 µM (inactive); in [8] it was > 100 µM (inactive); in experiment [9], 37.4 µM (inactive); in experiment [10], > 100 µM (inactive); in [11], > 100 µM (inactive); in [12] it was > 100 µM (inactive). For the same compound, the GI50 in [14] was > 100 µM (inactive); in experiment [15] it was > 100 µM (inactive); in [16], 41.5 µM (inactive); in experiment [19] it was > 100 µM (inactive); in experiment [17], 55.6 µM (inactive); in [18], > 100 µM (inactive).
As for `CC[C@H](C)[C@@H]([C@@H](CC(=O)N1CCC[C@H]1[C@H](OC)[C@@H](C)C(=O)NCCc1ccccc1)OC)N(C)C(=O)C(NC(=O)[C@H](C(C)C)N(C)C)C(C)C` (some centres not stated), the GI50 in experiment [1] is 0.00021 µM (active); in experiment [2] it was 0.000266 µM (active); in [3] it was 0.000248 µM (active); in experiment [4] it was 0.000757 µM (active); in [5], 0.000227 µM (active); in [20], 0.000266 µM (active). Also, the GI50 in experiment [6] was 0.00201 µM; in experiment [7] it was 6.68e-05 µM (active); in experiment [8], 3.18e-05 µM (active); in experiment [9] it was 0.000314 µM (active); in experiment [10], 0.000211 µM (active); in experiment [11], 4.09e-05 µM (active). In addition, the GI50 in experiment [13] was 0.000203 µM (active); in [14] it was 0.000174 µM (active); in [15] it was 0.000232 µM (active); in [16], 0.000275 µM (active); in experiment [19], 0.000676 µM (active); in experiment [17] it was 0.00139 µM (active). For the same compound, in experiment [18], the GI50 was 0.000275 µM (active).
With `CCOC1=C/C(=N\Nc2ccc([N+](=O)[O-])cc2)CCC1`, the GI50 in [1] is 32.4 µM (inactive); in [2], 26.3 µM (inactive); in experiment [3] it was 71.6 µM (inactive); in experiment [4] it was 12.3 µM (inactive); in [5], > 100 µM (inactive); in experiment [6], 7.94 µM. Further, the GI50 was 18.9 µM (inactive) in experiment [7]; 16.8 µM (inactive) in experiment [8]; 18.5 µM (inactive) in experiment [9]; 25.4 µM (inactive) in experiment [10]; 29.9 µM (inactive) in experiment [11]; 42.4 µM (inactive) in experiment [12]. Moreover, the GI50 is 14.9 µM (inactive) in [13]; 21.9 µM (inactive) in experiment [14]; 48.1 µM (inactive) in experiment [15]; 26.4 µM (inactive) in [16]; 25.5 µM (inactive) in experiment [19]; 63.8 µM (inactive) in experiment [17]. Also, the GI50 in experiment [18] is 22.5 µM (inactive).
As for `Cc1ccc([S+]([O-])C[C@@]2(C(F)F)NC(=O)NC2=O)cc1` (some centres not stated), the GI50 in experiment [1], in experiment [2], in experiment [3], in experiment [4], in experiment [5] and in [20] was > 100 µM (inactive) throughout. Besides, the GI50 was above 100 µM in experiment [6]; > 100 µM (inactive) in experiment [7]; > 100 µM (inactive) in [8]; > 100 µM (inactive) in [9]; > 100 µM (inactive) in experiment [10]; > 100 µM (inactive) in [11]. In addition, the GI50 in [12], in experiment [13], in experiment [14], in [16], in experiment [19] and in [17] was > 100 µM (inactive) each time. Besides, the GI50 in experiment [18] is > 100 µM (inactive).
